Data set [1] has as its system crash & burn (SQW 226) mutant zebrafish embryos. The data set is described as follows: chemical suppressor screen: whole mount P-H3 immunostaining of crash & burn embryos. The data set is classed as in vivo, zebrafish (Danio rerio).
The test system of data set [2] is wild-type zebrafish embryos. Conditions: in vivo.
In data set [3] the test system is cds mutant zebrafish embryos. The data set is described as follows: rescue of polyploid zebrafish mutant cds. The following applies: in vivo. From the text:
FIGS. 6A-6E show the ability of 8G16 to rescue a crash&burn (crb) zebrafish mutant (FIGS. 6B, untreated crb mutant and 6D 8G16 treated crb mutant) but not another polyploid zebrafish mutant cds (FIGS. 6C, untreated cds mutant and 6E, 8G16 treated cds mutant) compared to a wild-type, untreated embryo (FIG. 6A).

In data set [4] the test system is zebrafish embryos. The experiment in a line: FACS analysis of the cell cycle of cells from treated embryos. Type of data set: in vivo. Conditions: embryos treated with 10 and 100 μM 8G16. From the text:
Flow cylometric cell sorting analysis of zebrafish embryos to identify defects in cell cycle: To analyze the DNA content of the embryos wild-type and mutant embryonic cells were subjected to DNA flow cytometric cell sorting (FACS). We have shown that the FACS analysis of DNA content can be performed on cells from a single embryo allowing analysis and comparison of mutant and wild-type cell cycle phenotypes.
Embryos were anesthetized with tricaine (3-amino benzoic acid ethylester also called ethyl m-aminobenzoate, in a powdered form from Sigma, Cat.# A-5040). Tricaine solution for anesthetizing fish was prepared by combining the following: 400 mg tricaine powder, 97.9 ml DD water, and about 2.1 ml 1 M Tris (pH 9), pH was adjusted to about 7. Before use 4.2 ml of Tricaine solution was mixed with 100 ml clean tank water.
The embryos were dechorionated as described above and resuspended in a small volume of DMEM −20% FBS in a microtube. Embryos were disaggregated and resuspend in 1-2 ml of DMEM+20% FBS. The solution was passed through 105 μm mesh, and consequently 40 μm mesh. The total volume was raised to 5 ml and the cells' in the sample was counted using hemocytometer. Volume equaling 2×10^6 cells was transferred in 15 ml conical tube and filled to a total volume of 5 ml with PBS. The sample was spinned at 1200 rpm for 10 minutes and the liquid was aspirated off. […]
On the technique in general: In flow cytometry, cells or beads pass a laser one at a time.

Data set [5] relates to zebrafish embryos. The following applies: cited from earlier work; for apoptosis in zebrafish embryos: in vivo.
The subject of data set [6] is zebrafish (wild-type and SQW mutant strains). Conditions: in vivo.
Setting [7] is: 9-20 μM, 24 hours of development.

The structures appear in SMILES notation.

Turning to `C=CCOc1c(Br)cc(S(=O)(=O)c2cc(Br)c(O)c(Br)c2)cc1Br` [Compound 2, 4-(4-Allyloxy-3,5-dibromo-benzenesulfonyl)-2,6-dibromo-phenol], the “P-H3 staining in crash and burn embryos” value in data set [1] (zebrafish, in vivo) was “decrease”. For the same molecule, the “P-H3 staining in wildtype embryos” value in data set [2] is on record as “decrease”.
Regarding `N=c1ccccn1CC(=O)c1ccc(Cl)c(Cl)c1` [Compound 8, 1-(3,4-Dichloro-phenyl)-2-(2-imino-2H-pyridin-1-yl)-ethanone], the “P-H3 staining in crash and burn embryos” value in data set [1] (zebrafish, in vivo) is recorded as “decrease”. For the same molecule, in data set [2], the “P-H3 staining in wildtype embryos” value is recorded as “decrease”.
As for `COC(=O)CCC(=O)Nc1ccccc1Cl` [Compound 10, N-(2-Chloro-phenyl)-succinamic acid methyl ester], the “P-H3 staining in wildtype embryos” value in data set [2] was “increase”.
`Cc1cc(O)c(C(=O)C=Cc2ccc(O)cc2)c(=O)o1` [Compound 3, 4-Hydroxy-3-[3-(4-hydroxy-phenyl)-acryloyl]-6-methyl-pyran-2-one]: the “P-H3 staining in crash and burn embryos” value in data set [1] (zebrafish, in vivo) is reported as “decrease”. Also, in data set [2], the “P-H3 staining in wildtype embryos” value is “decrease”.
On to `O=C(O)CCCC(=O)Nc1cc(C(F)(F)F)ccc1Cl` [Compound 11, 4-(2-Chloro-5-trifluoromethyl-phenylcarbamoyl)-butyric acid], for which, in data set [2], the “P-H3 staining in wildtype embryos” value was “increase”.
Regarding `O=C(Nc1ncccc1O)C12CC3CC(CC(C3)C1)C2` [8G16, Adamantane-1-carboxylic acid (3-hydroxy-pyridin-2-yl)-amide], the “rescue of polyploid zebrafish mutant cds” value in data set [3] was “not”. For the same molecule, the “cell cycle phase distribution” value in the data set with zebrafish embryos [4] is “accumulation of cell in the G1/S phase”. For the same molecule, the “phenotypic appearance of crash & burn” value in data set [1] (10 μM 8G16, P-H3 antibody staining, genotype still crb) was “prevents”. Further, in data set [1] (setting [7]), the “P-H3 staining of treated embryos” value is on record as “normal” and the “developmental delay of treated embryos” value is listed as “slight developmental delay”. Moreover, in data set [1] (doses of 9, 12, 16 and 20 μM, 30-60 embryos at each dose), the “crash & burn mutants detected at 24 hours of development” value is “no crash & burn mutants were detected”. Besides, the “crash and burn cell cycle phenotype” value in data set [1] (through 24 hours of development) is given as “prevents”. Further, the “rescue of crash&burn (crb) zebrafish mutant” value in data set [1] (zebrafish, in vivo) is listed as “rescue”. Also, in data set [2], the “effect on normal embryos” value is recorded as “without affecting” and the “toxicity or cell cycle affects on wild-type embryos” value was “without overt toxicity or cell cycle affects”.
As for `CC(=O)C1=C(C)NC(=O)NC1c1cccc(O)c1` (stereo not shown) [Compound 15, 5-Acetyl-4-(3-hydroxy-phenyl)-6-methyl-3,4-dihydro-1H-pyrimidin-2-one], in data set [2], the “P-H3 staining in wildtype embryos” value is reported as “increase”.
Take `CC[C@@]1(O)C(=O)OCc2c1cc1n(c2=O)Cc2cc3ccccc3nc2-1` [camptothecin]: the “apoptosis in zebrafish embryos” value in the data set on zebrafish embryos [5] is reported as “cause apoplosis”.
Consider `Cc1c2ccccc2c(C)c2c1ccc1ccccc12` [DMBA, 7, 12 Dimethyl benzanlhracene], for which, in data set [6], the “fish that developed tumors” value is on record as 10.4%; the tumor types entry was “more brain and liver tumors”.
`Nc1cc([N+](=O)[O-])ccc1NNC(=O)Nc1ccccc1` [Compound 7, 1-(2-Amino-4-nitro-phenylamino)-3-phenyl-urea]: in data set [1] (zebrafish, in vivo), the “P-H3 staining in crash and burn embryos” value is on record as “decrease”. Further, the “P-H3 staining in wildtype embryos” value in data set [2] was “decrease”.
As to `O=C(O)c1cc([N+](=O)[O-])c(Nc2cccc3ccccc23)c([N+](=O)[O-])c1` [Compound 12, 4-(Naphthalen-1-ylamino)-3,5-dinitro-benzoic acid], the “P-H3 staining in wildtype embryos” value in data set [2] is “increase”.
As for `O=C(CSC1CC(=O)N(c2cccc(Cl)c2)C1=O)Nc1cccc(F)c1` (stereo not shown) [Compound 13, 2-[1-(3-Chloro-phenyl)-2,5-dioxo-pyrrolidin-3-ylsulfanyl]-N-(3-fluoro-phenyl)-acetamide], in data set [2], the “P-H3 staining in wildtype embryos” value is “increase”.
As for `COC(=O)Nc1nc2ccc(C(=O)c3cccs3)cc2[nH]1` [nocodazole], the “effect of treating post-MBT embryos” value in the data set on zebrafish embryos [5] (post-MBT embryos) is “metaphase arrest and apoptosis”.
Regarding `C[C@@]1(CO)[C@H](O)CC[C@@]2(C)[C@H]1CC[C@H]1C[C@@H]3C[C@@]12CC[C@]3(O)CO` [aphidicolin, reference compound], the “apoptosis in zebrafish embryos” value in the data set on zebrafish embryos [5] is “cause apoplosis”. Further, the “P-H3 staining in all embryos, including crash & burn” value in data set [1] (offspring of crash & burn heterozygotes raised in the presence of the chemical) is on record as “decreased”.
Consider `Cc1ccccc1OCC(=O)Nc1ccccc1C(=O)O` [Compound 9, 2-(2-o-Tolyloxy-acetylamino)-benzoic acid], for which the “P-H3 staining in crash and burn embryos” value in data set [1] (zebrafish, in vivo) is “decrease”. Also, in data set [2], the “P-H3 staining in wildtype embryos” value is “decrease”.
Regarding `O=C(c1ccccc1)C1C(=O)C2C=CC=CC2C1=O` (stereo not shown) [Compound 4, 2-Benzoyl-3a,7a-dihydro-indene-1,3-dione], in data set [1] (zebrafish, in vivo), the “P-H3 staining in crash and burn embryos” value is given as “decrease”. Moreover, in data set [2], the “P-H3 staining in wildtype embryos” value is “decrease”.
In the case of `NC(=O)NO` [hydroxyurea], in the data set on zebrafish embryos [5], the “apoptosis in zebrafish embryos” value is “cause apoplosis”.
`O=C(Nc1cc(S(=O)(=O)c2ccc(Cl)cc2)ccc1Cl)c1cc(I)cc(I)c1O` [Compound 6, 3,5-Diiodo-N-[2-chloro-5-(4-chloro-benzenesulfonyl)-phenyl]-2-hydroxy-benzamide]: the “P-H3 staining in crash and burn embryos” value in data set [1] (zebrafish, in vivo) is “decrease”. Also, the “P-H3 staining in wildtype embryos” value in data set [2] is “decrease”.
In the case of `CNc1ccc2oc(C[C@H]3O[C@@]4(CC[C@H]3C)O[C@H]([C@H](C)C(=O)c3ccc[nH]3)[C@H](C)C[C@H]4C)nc2c1C(=O)O` [A23187], the “fate of metaphase arrested cells” value with zebrafish embryos [5] (metaphase arrested cells) is given as “driven into G1”.
On to `Cc1ccc(S(=O)(=O)Oc2ccc([N+](=O)[O-])cc2[N+](=O)[O-])cc1` [Compound 5, Toluene-4-sulfonic acid 2,4-dinitro-phenyl ester], for which the “P-H3 staining in crash and burn embryos” value in data set [1] (zebrafish, in vivo) is on record as “decrease”. Besides, the “P-H3 staining in wildtype embryos” value in data set [2] is on record as “decrease”.
In the case of `CC1=CCC2(CO)COC(c3ccccc3O)C1C2` (stereo not shown) [Compound 14, 2-(5-Hydroxymethyl-8-methyl-3-oxa-bicyclo[3.3.1]non-7-en-2-yl)-phenol], the “P-H3 staining in wildtype embryos” value in data set [2] is “increase”.

These data come from patent US20050155087A1, “Method of screening compounds” (priority 2001, published 2005).
